Assay results published in ChEMBL document CHEMBL3137667, “[Drug-induced liver injury; fourteenth updated edition of the bibliographic database of liver injuries and related drugs]” (Gastroenterol Clin Biol, 2004).

Assays:
[1] = human
[2] = human; remark: listed apart in the source
[3] = human; remark: listed apart in the source
[4] = human; remark: listed apart in the source
[5] = human; remark: listed apart in the source
[6] = human; remark: listed apart in the source
[7] = human; remark: listed apart in the source
[8] = human; remark: listed apart in the source
[9] = human, serum, 4383 h
[10] = human, serum
[11] = Highest frequency of acute liver toxicity observed during clinical trials, expressed as a percentage. [column '% AIGUE' in source]; details: human
[12] = human, serum; remark: listed apart in the source
[13] = human; remark: listed apart in the source
[14] = Highest frequency of moderate liver toxicity observed during clinical trials, expressed as a percentage. [column '% BIOL' in source]; details: human
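Throughout, for Hepatotoxicity (association with vascular disease): count of indexed literature references reporting vascular liver injury in humans, e.g. peliosis hepatitis, hepatic veno-occlusive disease or Budd-Chiari syndrome.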
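Throughout, for Hepatotoxicity (benign tumour): value is a count of indexed literature references citing a benign tumour confirmed by histopathology.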
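Throughout, for Hepatotoxicity (choleostasis): human cholestatic liver injury, shown by histopathology or by peak ALT or AST elevation over alkaline phosphatase ratio below 2, value counts indexed literature reports.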
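Throughout, for Hepatotoxicity (chronic liver disease): chronic liver injury confirmed by histopathology or persistently raised serum aminotransferase activity beyond 6 months, value given as the count of indexed literature references.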
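Throughout, for Hepatotoxicity (cirrhosis): value is a count of indexed literature references reporting cirrhosis confirmed by histopathology.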
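Throughout, for Hepatotoxicity (cytolytic): human cytolytic liver injury, shown by histopathology or by a ratio above 5 of peak ALT or AST elevation to alkaline phosphatase elevation, value counts indexed references.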
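Throughout, for Hepatotoxicity (granulomatous hepatitis): value is a count of indexed literature references reporting granulomatous liver disease confirmed by histopathology.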
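Throughout, for Hepatotoxicity (malignant tumour): malignant tumour confirmed by histopathology, value gives the count of indexed literature references reporting it.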
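Throughout, for Hepatotoxicity (severe hepatitis): human clinical data: severe hepatitis, meaning potentially life-threatening liver failure or clinically observed cases, the value counts how many indexed literature references report it.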
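Throughout, for Hepatotoxicity (steatosis): steatosis confirmed by histopathology, value is the count of indexed references.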

CN1CCc2cccc3c2[C@H]1Cc1ccc(O)c(O)c1-3 [APOMORPHINE]
0: Hepatotoxicity (severe hepatitis) [1] | Hepatotoxicity (benign tumour) [2] | Hepatotoxicity (steatosis) [3] | Hepatotoxicity (malignant tumour) [4] | Hepatotoxicity (cytolytic) [5] | Hepatotoxicity (cirrhosis) [6] | Hepatotoxicity (choleostasis) [7] | Hepatotoxicity (association with vascular disease) [8] | Hepatotoxicity (chronic liver disease) [9] | Hepatotoxicity (acute) [10] | Hepatotoxicity (granulomatous hepatitis) [13]
1: Hepatotoxicity (moderate) [12]
0%: Hepatotoxicity (acute) [11] | Hepatotoxicity (moderate) [14]

NCC[C@H](O)C(=O)N[C@@H]1C[C@H](N)[C@@H](O[C@H]2O[C@H](CN)CC[C@H]2N)[C@H](O)[C@H]1O[C@H]1O[C@H](CO)[C@@H](O)[C@H](N)[C@H]1O [ARBEKACIN]
27.3%: Hepatotoxicity (moderate) [14]
0: Hepatotoxicity (severe hepatitis) [1] | Hepatotoxicity (benign tumour) [2] | Hepatotoxicity (steatosis) [3] | Hepatotoxicity (malignant tumour) [4] | Hepatotoxicity (cytolytic) [5] | Hepatotoxicity (cirrhosis) [6] | Hepatotoxicity (choleostasis) [7] | Hepatotoxicity (association with vascular disease) [8] | Hepatotoxicity (chronic liver disease) [9] | Hepatotoxicity (acute) [10] | Hepatotoxicity (granulomatous hepatitis) [13]
30: Hepatotoxicity (moderate) [12]
0%: Hepatotoxicity (acute) [11]

CNC(=O)C[C@@H](N)C(=O)N[C@@H](C(=O)N[C@@H]1C(=O)N2[C@@H]1SC(C)(C)[C@@H]2C(=O)O)c1ccc(O)cc1 [ASPOXICILLIN]
0%: Hepatotoxicity (acute) [11]
20: Hepatotoxicity (moderate) [12]
40%: Hepatotoxicity (moderate) [14]
0: Hepatotoxicity (severe hepatitis) [1] | Hepatotoxicity (benign tumour) [2] | Hepatotoxicity (steatosis) [3] | Hepatotoxicity (malignant tumour) [4] | Hepatotoxicity (cytolytic) [5] | Hepatotoxicity (cirrhosis) [6] | Hepatotoxicity (choleostasis) [7] | Hepatotoxicity (association with vascular disease) [8] | Hepatotoxicity (chronic liver disease) [9] | Hepatotoxicity (acute) [10] | Hepatotoxicity (granulomatous hepatitis) [13]

CO[C@H]1[C@@H](O)[C@H](N)[C@@H](O[C@H]2O[C@H]([C@H](C)N)CC[C@H]2N)[C@H](O)[C@@H]1N(C)C(=O)CN [ASTROMICIN]
0: Hepatotoxicity (severe hepatitis) [1] | Hepatotoxicity (benign tumour) [2] | Hepatotoxicity (steatosis) [3] | Hepatotoxicity (malignant tumour) [4] | Hepatotoxicity (cytolytic) [5] | Hepatotoxicity (cirrhosis) [6] | Hepatotoxicity (choleostasis) [7] | Hepatotoxicity (association with vascular disease) [8] | Hepatotoxicity (chronic liver disease) [9] | Hepatotoxicity (acute) [10] | Hepatotoxicity (granulomatous hepatitis) [13]
1: Hepatotoxicity (moderate) [12]
7.3%: Hepatotoxicity (moderate) [14]
0%: Hepatotoxicity (acute) [11]

CNC(=O)c1cccc2c(Nc3ccc(NS(C)(=O)=O)cc3OC)c3cccc(C)c3nc12 [ASULACRINE]
0%: Hepatotoxicity (acute) [11]
0: Hepatotoxicity (severe hepatitis) [1] | Hepatotoxicity (benign tumour) [2] | Hepatotoxicity (steatosis) [3] | Hepatotoxicity (malignant tumour) [4] | Hepatotoxicity (cytolytic) [5] | Hepatotoxicity (cirrhosis) [6] | Hepatotoxicity (choleostasis) [7] | Hepatotoxicity (association with vascular disease) [8] | Hepatotoxicity (chronic liver disease) [9] | Hepatotoxicity (acute) [10] | Hepatotoxicity (granulomatous hepatitis) [13]
17%: Hepatotoxicity (moderate) [14]
2: Hepatotoxicity (moderate) [12]

CC1(C)S[C@@H]2[C@H](NC(=O)[C@H](NC(=O)N3CCNC3=O)c3ccccc3)C(=O)N2[C@H]1C(=O)O [AZLOCILLIN]
0: Hepatotoxicity (severe hepatitis) [1] | Hepatotoxicity (benign tumour) [2] | Hepatotoxicity (steatosis) [3] | Hepatotoxicity (malignant tumour) [4] | Hepatotoxicity (cytolytic) [5] | Hepatotoxicity (cirrhosis) [6] | Hepatotoxicity (choleostasis) [7] | Hepatotoxicity (association with vascular disease) [8] | Hepatotoxicity (chronic liver disease) [9] | Hepatotoxicity (acute) [10] | Hepatotoxicity (granulomatous hepatitis) [13]
11.1%: Hepatotoxicity (moderate) [14]
0%: Hepatotoxicity (acute) [11]
3: Hepatotoxicity (moderate) [12]
